Measured values from patent US4894225A (priority 1987, dated 1990).

System: MX-1 tumors (human breast adenocarcinoma-derived tumor cell line)
Conditions: in vivo

**Q.** With O=P1(N(CCCl)CCCl)NCCCO1 (stereo not shown) [cytoxan] as the compound, how does the “% TGI (tumor growth inhibition vs PBS)” value read?
**A.** The value was 90.5%.

**Q.** And the deaths?
**A.** The deaths was 0/5.

**Q.** And the “ΔBW (change in body weight)” value?
**A.** The value was 1.11.

**Q.** And the “ΔTW (change in tumor weight)” value?
**A.** Its value is 2.4.
